Experiments:
[1] = BEAM (402-C-0804) phase 2b study, crystalline formulation; type: in vivo, human
[2] = Drug-drug interaction study: bardoxolone methyl alone and with itraconazole in healthy volunteers; conditions: for AUC extra %, GM / AUC extra %, Mean / CL/F, GM / CL/F, Mean / λz, GM / λz, Mean / AUC(0-t) / AUC(0-inf) / Cmax / half-life / Vd/F / Tmax: plasma; for AUC(0-t) / AUC(0-inf) / Cmax / half-life / Vd/F / Tmax: human; for AUC(0-t): AUC0-t; for AUC(0-inf): AUC0-∞; for Vd/F: Vz/F
[3] = Crystalline 75 mg QD 52 weeks, N = 57
[4] = Crystalline 150 mg QD 52 weeks, N = 56
[5] = Period 1: single oral 10 mg bardoxolone methyl alone, fasted, n = 16
[6] = Period 2: single 10 mg bardoxolone methyl with daily 200 mg itraconazole, n = 15
[7] = bardoxolone methyl alone (Period 1)
[8] = oral, 10 mg, Geom. Mean, Bardoxolone Methyl Alone (A), paired analysis n = 15
[9] = oral, GM, Period 2: single 10 mg bardoxolone methyl with daily 200 mg itraconazole, n = 15
[10] = oral, Geom. Mean, Bardoxolone Methyl + Itraconazole (B), paired analysis n = 15
[11] = oral, Mean, Period 2: single 10 mg bardoxolone methyl with daily 200 mg itraconazole, n = 15
[12] = po, 10 mg, GM, Period 1: single oral 10 mg bardoxolone methyl alone, fasted, n = 16
[13] = po, 10 mg, Mean, Period 1: single oral 10 mg bardoxolone methyl alone, fasted, n = 16

COC(=O)[C@]12CCC(C)(C)C[C@H]1[C@H]1C(=O)C=C3[C@@]4(C)C=C(C#N)C(=O)C(C)(C)[C@@H]4CC[C@@]3(C)[C@]1(C)CC2 [Bardoxolone methyl, methyl-2-cyano-3,12-dioxooleana-1,9-dien-28-oic acid]
AE, SOC Card: Oedema peripheral, patients n (%) [1, 3]: 3 (5)
AE, SOC Genrl: Generalised oedema, patients n (%) [1, 3]: 0
AE, SOC Genrl: Oedema peripheral, patients n (%) [1, 3]: 10 (18)
AE, SOC Inv: Ejection fraction decreased, patients n (%) [1, 3]: 0
AE, SOC Metab: Fluid overload, patients n (%) [1, 3]: 2 (4)
AE, SOC Metab: Oedema peripheral, patients n (%) [1, 3]: 1 (2)
AE, SOC Resp: Dyspnoea exertional, patients n (%) [1, 3]: 0
AE, SOC Resp: Dyspnoea, patients n (%) [1, 3]: 6 (11)
AE, SOC Resp: Orthopnoea, patients n (%) [1, 3]: 0
AE, SOC Resp: Pulmonary oedema, patients n (%) [1, 3]: 1 (2)
SAE, SOC Card: Cardiac failure congestive, patients n (%) [1, 3]: 2 (4)
SAE, SOC Genrl: Oedema peripheral, patients n (%) [1, 3]: 0
SAE, SOC Metab: Fluid overload, patients n (%) [1, 3]: 1 (2)
SAE, SOC Resp: Dyspnoea, patients n (%) [1, 3]: 0
SAE, SOC Resp: Pulmonary oedema, patients n (%) [1, 3]: 1 (2)
AE, SOC Card: Cardiac failure congestive, patients n (%) [1, 4]: 3 (5)
AE, SOC Card: Dyspnoea paroxysmal nocturnal, patients n (%) [1, 4]: 0
AE, SOC Card: Oedema peripheral, patients n (%) [1, 4]: 4 (7)
AE, SOC Genrl: Generalised oedema, patients n (%) [1, 4]: 0
AE, SOC Genrl: Oedema peripheral, patients n (%) [1, 4]: 11 (20)
AE, SOC Inv: Ejection fraction decreased, patients n (%) [1, 4]: 0
AE, SOC Metab: Fluid overload, patients n (%) [1, 4]: 0
AE, SOC Metab: Oedema peripheral, patients n (%) [1, 4]: 3 (5)
AE, SOC Resp: Dyspnoea exertional, patients n (%) [1, 4]: 3 (5)
AE, SOC Resp: Dyspnoea, patients n (%) [1, 4]: 4 (7)
AE, SOC Resp: Orthopnoea, patients n (%) [1, 4]: 0
AE, SOC Resp: Pulmonary oedema, patients n (%) [1, 4]: 0
SAE, SOC Card: Cardiac failure congestive, patients n (%) [1, 4]: 2 (4)
SAE, SOC Genrl: Oedema peripheral, patients n (%) [1, 4]: 1 (2)
SAE, SOC Metab: Fluid overload, patients n (%) [1, 4]: 0
SAE, SOC Resp: Dyspnoea, patients n (%) [1, 4]: 0
SAE, SOC Resp: Pulmonary oedema, patients n (%) [1, 4]: 0
Blood pressure ([1]; crystalline formulation, titration design): no clear dose-related trend was observed in blood pressure
Tolerability of concomitant administration with itraconazole ([2]; 10 mg + itraconazole 200 mg): generally safe and well tolerated
Clearance (GM CL/F) ([2]; 10 mg single dose + itraconazole 200 mg daily): 41.6 L/h
Clearance (GM CL/F) ([2]; 10 mg single dose, alone): 359 L/h
Increase in exposure in the presence of itraconazole ([2]; 10 mg single dose, itraconazole 200 mg daily): > 5 fold
AUC extra %, GM [2, 5]: 5.81%
AUC extra %, Mean [2, 5]: 6.10%
CL/F, GM [2, 5]: 359 L/h
CL/F, Mean [2, 5]: 402 L/h
λz, GM [2, 5]: 0.0370 h⁻¹
λz, Mean [2, 5]: 0.0392 h⁻¹
AUC extra %, GM [2, 6]: 7.64%
AUC extra %, Mean [2, 6]: 8.47%
CL/F, GM [2, 6]: 41.6 L/h
CL/F, Mean [2, 6]: 42.8 L/h
λz, GM [2, 6]: 0.0074 h⁻¹
λz, Mean [2, 6]: 0.00762 h⁻¹
Subjects with a TEAE, n (%) [2, 7]: 3 (18.8%)
Subjects with study drug-related TEAEs (diarrhea, nausea, headache), n (%) [2, 7]: 1 (6.3%)
Subjects with a TEAE, n (%) ([2]; concomitant bardoxolone methyl and itraconazole (Period 2)): 1 (6.7%)
AUC(0-t) [2, 8]: 0.0258 µg·h/mL
AUC(0-inf) [2, 8]: 0.0276 µg·h/mL
Cmax [2, 8]: 2.41 ng/mL
half-life ([2]; oral, 10 mg, Mean t1/2, 10 mg single dose, alone): 19.8 h
AUC(0-t) [2, 9]: 0.22 µg·h/mL
AUC(0-t) [2, 10]: 0.22 µg·h/mL
AUC(0-t) [2, 11]: 0.226 µg·h/mL
AUC(0-inf) [2, 9]: 0.241 µg·h/mL
AUC(0-inf) [2, 10]: 0.241 µg·h/mL
AUC(0-inf) [2, 11]: 0.248 µg·h/mL
Cmax [2, 9]: 16.6 ng/mL
Cmax [2, 10]: 16.6 ng/mL
Cmax [2, 11]: 17.3 ng/mL
half-life ([2]; oral, Mean t1/2, 10 mg single dose + itraconazole 200 mg daily): 95.9 h
Vd/F [2, 9]: 5620 L
Vd/F [2, 11]: 5900 L
Tmax [2, 11]: 3.1 h
Tmax ([2]; oral, Median, Period 2: single 10 mg bardoxolone methyl with daily 200 mg itraconazole, n = 15): 3 h
half-life ([2]; oral, t½, Mean, Period 2: single 10 mg bardoxolone methyl with daily 200 mg itraconazole, n = 15): 95.9 h
half-life ([2]; oral, t½, Median, Period 2: single 10 mg bardoxolone methyl with daily 200 mg itraconazole, n = 15): 97.7 h
AUC(0-t) [2, 12]: 0.0261 µg·h/mL
AUC(0-t) [2, 13]: 0.0293 µg·h/mL
AUC(0-inf) [2, 12]: 0.0278 µg·h/mL
AUC(0-inf) [2, 13]: 0.031 µg·h/mL
Cmax [2, 12]: 2.43 ng/mL
Cmax [2, 13]: 2.58 ng/mL
Vd/F [2, 12]: 9700 L
Vd/F [2, 13]: 10200 L
Tmax [2, 13]: 2.9 h
Tmax ([2]; po, 10 mg, Median, Period 1: single oral 10 mg bardoxolone methyl alone, fasted, n = 16): 2.5 h
half-life ([2]; po, 10 mg, t½, Mean, Period 1: single oral 10 mg bardoxolone methyl alone, fasted, n = 16): 19.8 h
half-life ([2]; po, 10 mg, t½, Median, Period 1: single oral 10 mg bardoxolone methyl alone, fasted, n = 16): 20.3 h
Changes in laboratory parameters ([2]; whole study): no clinically relevant mean or individual changes in laboratory parameters
Deaths, SAEs, adverse events leading to discontinuation ([2]; whole study): No subjects died, had an SAE, or had an adverse event that led to discontinuation of study drug
